Results reported in US20230000840A1, “THERAPEUTIC AGENTS AND PROPHYLACTIC AGENTS FOR FUNCTIONAL GASTROINTESTINAL DISORDERS AND XEROSTOMIA” (NIPPON SHINYAKU CO., LTD., priority 2019, published 2023).

Columns and labels:
ileum = test: Magnus test: carbachol-induced contraction of isolated rat ileum; details: test compound 10 μM, then carbachol 50 nM, 100% = carbachol 1000 nM, 0% = DMSO + carbachol 50 nM, average ± standard error, read-out: Enhancement ratio P of the contraction force
Description: 9- to 15-week-aged SD female rats (Japan SLC, Inc.) were exsanguinated to death by amputation of carotid artery under isoflurane anesthesia. Then, the ileum was removed from each rat, and cut to a length of 2 cm while excising the mesentery and connective tissue, to prepare an intestinal sample. In a Magnus tank, this sample was immersed and suspended in 20 mL of a Krebs solution at 37° C. (118 mM NaCl, 4.7 mM KCl, 2.5 mM CaCl2, 1.2 mM MgSO4, 1.2 mM KH2PO4, 11 mM D-glucose, 20 mM NaHCO3) aerated with a mixed gas of 95% O2 and 5% CO2. Then, a load of 1 g was applied to the sample to stabilize the tension.
One end of the sample was connected to an isotonic transducer (IT-10, Medical Agent), and tension (contraction force) data was imported to a personal computer via Power Lab (registered trademark) (A&D Instruments Limited). Carbachol (Carbamylcholine Chloride, Cat. No. 036-09841, manufactured by FUJIFILM Wako Pure Chemical Industries, Ltd.) was added to the Krebs solution in the Magnus tank such that the final concentration thereof was 1000 nM, and contraction of the sample was checked. A contraction force Tb of the sample at this time was defined as 100%. Then, the Magnus tank was washed with a Krebs solution three times to wash away carbachol, and the Magnus tank was finally filled with 20 mL of a Krebs solution.
Next, dimethyl sulfoxide (DMSO, Cat. No. 13445-74, manufactured by NACALAI TESQUE, INC.) was added to the Krebs solution in the Magnus tank, then carbachol was added to the Krebs solution in the Magnus tank such that the final concentration thereof was 50 nM, and contraction of the sample was checked. A contraction force Ta of the sample at this time was defined as 0%. Then, the Magnus tank was washed with a Krebs solution three times to wash away carbachol and DMSO, and the Magnus tank was finally filled with 20 mL of a Krebs solution. Next, a test compound dissolved in DMSO was added to the Krebs solution in the Magnus tank such that the final concentration thereof was 10 μM, then carbachol was added to the Krebs solution in the Magnus tank such that the final concentration thereof was 50 nM, and contraction of the sample was checked.
As described above, the contraction force Tb of the sample when carbachol was added at a final concentration of 1000 nM was defined as 100%, and the contraction force Ta of the sample when carbachol was added at a final concentration of 50 nM under the condition that DMSO was added first instead of the test compound was defined as 0%. The contraction force of the sample when carbachol was added at a final concentration of 50 nM under the condition that the test compound was added first at a final concentration of 10 μM was denoted by Tc, and an enhancement ratio P (unit: %) of the contraction force by the test compound was calculated according to the following equation (2). The increase in contraction force by the test compound was evaluated on the basis of the enhancement ratio P. The number of cases in each addition group was 3 to 7.
P=100×(Tc−Ta)/(Tb−Ta) (2)

anesthetized mice = test: Measurement of secreted saliva amount in anesthetized mice; format: in vivo, mouse; details: urethane-anesthetized male ICR mice; 10 mg/kg intravenous; cotton balls weighed after 30 minutes; average ± standard error
Description: 8-week-aged male ICR mice (Japan SLC, Inc.) were anesthetized with urethane (1650 mg/kg, intraperitoneal administration). After about 1 hour, a test compound or a vehicle (physiological saline containing 10% DMSO (OTSUKA NORMAL SALINE, manufactured by Otsuka Pharmaceutical Factory, Inc.)) was intravenously administered at 10 mg/kg, and immediately after that, one or two absorbent cotton wool balls ([…]) (Roller Cotton (cotton ball) SS, manufactured by Nichiei Co., Ltd.) were inserted into the mouth. The difference between the weight of the absorbent cotton balls after 30 minutes from insertion and the weight of the absorbent cotton balls before insertion was defined as an amount of saliva secreted. At this time, the test compound was dissolved in DMSO and then diluted 10-fold with physiological saline. The administration volumes of the test compound and the vehicle were each set to 5 mL/kg. The experiment was carried out in three parts. The number of cases in each administration group was 3-4.

`COCC1(CN(C)c2cc(-c3cc(F)cc(C(F)(F)F)c3)nc3nc(-c4cnc(N5CCC(F)(C(=O)O)CC5)cn4)[nH]c23)CCC1` [Example 2, 4-Fluoro-1-(5-{5-[3-fluoro-5-(trifluoromethyl)phenyl]-7-[{[1-(methoxymethyl)cyclobutyl]methyl}(methyl)amino]-1H-imidazo[4,5-b]pyridin-2-yl}pyrazin-2-yl)piperidine-4-carboxylic acid] was tested, and the activation at 10 µM (ileum) was 61.5 ± 8% and the “Amount of saliva secreted” value (anesthetized mice) was 9.73 ± 3.61 mg.
